Experimental data: patent US12310946B2, “Pharmaceutical composition for oral administration of edaravone and method of administering same” (MITSUBISHI TANABE PHARMA CORPORATION, priority 2020, dated 2025)
Read-outs that look alike come from different tables or passages of the source.

Legend:
[1] = Clinical study #4: PK of edaravone oral formulation (formula #2), high-fat meal 1 hour after administration vs fasted; format: in vivo, human; details: 100 mg oral; for partial AUC / AUC(0-inf) / Cmax / Tmax / half-life: male, human, plasma, po, 100 mg; for AUC(0-inf) / Cmax / Tmax / half-life: mean (n = 9)
Experimental: Effects of meal consumption 1 hour after administration of the edaravone oral formulation on the pharmacokinetics of edaravone were evaluated. Specifically, a clinical study #4 described below was conducted on the same subjects in Japanese healthy adult male subjects. In the clinical study #4, the edaravone oral formulation of the formula #2 in Table 1 above was used and administered orally once during the study period. In addition, the same high-fat meal as that used in Example 1 above was used.
As a post-administration consumption group, the same subjects in fasted conditions after a lapse of 10 hours or longer from meal consumption were orally administered with the edaravone oral formulation, and the high-fat meal was consumed 1 hour after the administration. Blood samples were each collected before the administration, and 5 minutes, 15 minutes, 30 minutes, 1 hour, 1.5 hours, 2 hours, 4 hours, 6 hours, 8 hours, 12 hours, 24 hours, 36 hours, and 48 hours after the administration, and the concentrations of unchanged edaravone in plasma were measured. The consumption of the high-fat meal 1 hour after the administration was carried out after the blood sample collection 1 hour after the administration, and a subsequent meal was not consumed until the blood sample collection 4 hours after the administration was completed. On the other hand, as a fasted group for reference, the edaravone oral formulation was administered orally to the same subjects in fasted conditions, blood samples were collected, and the concentrations of unchanged edaravone in plasma were measured in the same manner.
In addition, the AUC0-∞ after the administration of the edaravone oral formulation was evaluated separately on the results from 0 hour to 1 hour after the administration (0 to 1 h, before the consumption of a meal resumed after the administration) (AUC0-1h) and the results 1 hour after the administration (1 h to ∞ h, after the consumption of a meal resumed after the administration) (AUC1h-∞) for the post-administration consumption group (1 h before high-fat meal) and the fasted group (Fasted).

[2] = Clinical study #6: PK of edaravone oral formulation (formula #3) via PEG tube in ALS patients; format: in vivo, human; details: for Cmax: 105 mg
Experimental: Pharmacokinetics of edaravone in administration of the edaravone oral formulation via a PEG tube was evaluated. Specifically, a clinical study #6 described below was conducted in ALS patients with a percutaneous endoscopic gastrostomy tube (PEG tube) (the patient group).
The edaravone oral formulation was administered via a PEG tube to the patient group in fasted conditions after a lapse of 10 hours or longer from consumption of a meal. That is, first, 100 mL of lukewarm water was injected through a PEG tube 1 hour before the administration of the edaravone oral formulation, and 10 mL of lukewarm water was injected through a PEG tube immediately before the administration. Then, the edaravone oral formulation was administered to the PEG tube, and further 10 mL of water was injected through the PEG tube three times to wash in the edaravone oral formulation. In the patient group, ALS patients who had been already administered with an edaravone intravenous infusion formulation were administered with the edaravone oral formulation via a PEG tube after a lapse of 48 hours or longer from the time of completion of the previous administration of the intravenous infusion formulation. Blood samples were each collected before the administration, and 15 minutes, 30 minutes, 1 hour, 2 hours, 4 hours, 8 hours, and 24 hours after the administration, and the concentrations of unchanged edaravone in plasma were measured. […] For the reference example, the results of the reference group in Example 4, in which the edaravone oral formulation of the same formula #3 was administered orally and blood samples were collected, were utilized.
The resulting PK parameters were corrected for body weight of each subject in the patient group adjusted to 70 kg by a proportional calculation. In addition, the results of the PK parameters after correction of the patient group are shown in individual plots as #6 in FIG. 3. A comparison was made between the patient group administered via a PEG tube in Table 10 below and the reference group administered orally in Table 9 above. […] Thus, the difference in the Cmax and the difference in the AUC before weight correction between the patient group administered via a PEG tube and the reference group administered orally seen in Table 10 below are considered due to the difference in body weight between the patient group administered via a PEG tube and the reference group administered orally, and the difference in the Cmax and the difference in the AUC after weight correction between the patient group administered via a PEG tube and the reference group administered orally seen in FIG. 3 are each considered to be within the range of error.

[3] = Clinical study #1: PK of edaravone oral formulation (formula #1), fasted vs 30 min after high-fat meal; format: in vivo; details: male, human, plasma, 200 mg, 200 mg oral
Experimental: Effects of meal consumption before administration of the edaravone oral formulation on the pharmacokinetics of edaravone were evaluated. Specifically, clinical studies #1, #2, and #3 described below were conducted on separate days in Japanese healthy adult male subjects. In each of clinical studies #1, #2, and #3, one dose each of edaravone oral formulations (edaravone suspensions) of formulas #1, #2, and #3 shown in Table 1 below were used respectively and administered orally once during the study period. For each clinical study, a reference study was conducted (reference example), in which the edaravone oral formulation was administered in fasted conditions as described below, and in each clinical study and the corresponding reference study, the edaravone oral formulation was each administered to the same subjects.
For the high-fat meal, a meal with total calories per meal of 800 to 1000 kilocalories and calorie intake from lipid of 50% was used. For the standard meal, a meal with total calories per meal of 400 to 500 kilocalories and calorie intake from lipid of 25% was used. For the light meal, a liquid-type nutritional supplement with total calories per meal of 250 kilocalories (enteral nutritional supplement: Ensure Liquid (trade name)) was used.
The edaravone oral formulation (formula #1) was administered orally to the subjects 30 minutes after high-fat meal consumption. Blood samples were each collected before the administration, and 15 minutes, 30 minutes, 1 hour, 1.5 hours, 2 hours, 4 hours, 6 hours, 8 hours, 12 hours, 24 hours, 36 hours, and 48 hours after the administration, and the concentrations of unchanged edaravone in plasma were measured. On the other hand, as a reference example, the edaravone oral formulation was administered orally to the same subjects in fasted conditions, blood samples were collected, and the concentrations of unchanged edaravone in plasma were measured in the same manner. For the administration in fasted conditions, the edaravone oral formulation was administered orally after a lapse of 10 hours or more from the previous meal consumption (the same applies hereinafter). None of the subjects consumed a next meal until the blood sample collection 4 hours after the administration was completed.

[4] = 1 h before high-fat meal vs fasted
[5] = high-fat meal 1 hour after administration vs fasted
[6] = formula #2, 1 h before high-fat meal
[7] = after weight correction (70 kg)
[8] = human, plasma, 105 mg via PEG tube, fasted, ALS patients, mean, before weight correction
[9] = formula #1, 30 min after high-fat meal, mean (n = 5)
[10] = formula #1, fasted, mean (n = 6)

With `CC1=NN(c2ccccc2)C(=O)C1` [Edaravone, 3-methyl-1-phenyl-2-pyrazolin-5-one] the “change in the AUC0-1h in comparison with fasted” value [1, 4] was “slight decrease”, the “change in the AUC1h-∞ in comparison with fasted” value [1, 4] was “no change” and the “change in the AUC in comparison with fasted” value [1, 4] was “→”. The “change in the Cmax in comparison with fasted” value [1, 4] was “→”, the “decrease in the AUC in comparison with the fasted group” value [1, 5] was “about 10.4%” and the “decrease in the Cmax in comparison with the fasted group” value [1, 5] was “about 17.0%”. For the same compound, the partial AUC ([1]; 1 h before high-fat meal (n = 9), read-out: AUC0-1h) was 772 ± 519 ng·h/mL, the partial AUC ([1]; 1 h before high-fat meal (n = 9), read-out: AUC1h-∞) was 703 ± 202 ng·h/mL and the partial AUC ([1]; fasted (n = 9), read-out: AUC0-1h) was 890 ± 349 ng·h/mL. It also gave a partial AUC ([1]; fasted (n = 9), read-out: AUC1h-∞) of 756 ± 232 ng·h/mL, an AUC(0-inf) [1, 6] of 1480 ng·h/mL and a Cmax [1, 6] of 1500 ng/mL. It also gave a Tmax [1, 6] of 0.6 h, a half-life [1, 6] of 9.65 h and an AUC(0-inf) ([1]; formula #2, fasted) of 1650 ng·h/mL. The Cmax ([1]; formula #2, fasted) was 1810 ng/mL, the Tmax ([1]; formula #2, fasted) was 0.36 h and the half-life ([1]; formula #2, fasted) was 9.33 h. For the same compound, the “difference in the AUC between the patient group administered via a PEG tube and the reference group administered orally” value [2, 7] was 9.5%, the “difference in the Cmax between the patient group administered via a PEG tube and the reference group administered orally” value [2, 7] was 8.3% and the “difference in the AUC between the patient group administered via a PEG tube and the reference group administered orally” value ([2]; before weight correction) was 33%. The “difference in the Cmax between the patient group administered via a PEG tube and the reference group administered orally” value ([2]; before weight correction) was 30%, the Cmax ([2]; human, plasma, 105 mg via PEG tube, ALS patients, corrected to 70 kg, read-out: Cmax after weight correction, mean value±standard error) was 1580 ± 251 ng/mL and the Cmax ([2]; human, plasma, 105 mg via PEG tube, fasted, ALS patients, mean, before weight correction, read-out: Cmax) was 2160 ng/mL. It also gave an AUC ([2]; human, plasma, 105 mg via PEG tube, ALS patients, corrected to 70 kg, read-out: AUC after weight correction, mean value±standard error) of 1700 ± 228 ng·h/mL, an AUC(0-inf) [2, 8] of 2340 ng·h/mL and a Tmax [2, 8] of 0.33 h. For the same compound, the AUC(0-inf) [3, 9] was 2470 ng·h/mL, the Cmax [3, 9] was 899 ng/mL and the Tmax [3, 9] was 1.35 h. It also gave a half-life [3, 9] of 5.23 h, an AUC(0-inf) [3, 10] of 6310 ng·h/mL and a Cmax [3, 10] of 4930 ng/mL. For the same compound, the Tmax [3, 10] was 0.42 h and the half-life [3, 10] was 9.05 h.
